Tests used:
Experiment in all cases: relative viability (nuclei count vs DMSO), 5 days (fraction); higher = more cells survive
[1] = compound: CCC1=CN=CN=C1N2CCN(CC2)CC3=NC4=C(N3)C=C(C=C4)C(F)(F)F + CC1(C)CCC(c2ccc(Cl)cc2)=C(CN2CCN(c3ccc(C(=O)NS(=O)(=O)c4ccc(N[C@H](CCN5CCOCC5)CSc5ccccc5)c(S(=O)(=O)C(F)(F)F)c4)cc3)CC2)C1 [Navitoclax] (partner 0.5 µM)
Procedure, shortened: (§1)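 Cells from lung cancer lines were seeded into 1536-well plates and, one day later, dosed by pin tool. Treatments were either a single drug or a fixed dose of an anchor drug with five library-drug doses (not always all listed) in √10 steps. After 5 days, nuclei were stained in a one-step fixation (final 0.05% Triton X-100, 1% formaldehyde, 1 ug/ml Hoechst) and counted on 4× images, and relative viability is the treated-to-vehicle nuclei ratio, as the median of duplicate plates.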

[2] = compound: CCC1=CN=CN=C1N2CCN(CC2)CC3=NC4=C(N3)C=C(C=C4)C(F)(F)F + N=C(N)NC(=N)NCCc1ccccc1 [Phenformin] (partner 250 µM)
Procedure, shortened: as §1

[3] = compound: CCn1c(-c2nonc2N)nc2cnc(Oc3cccc(NC(=O)c4ccc(OCCN5CCOCC5)cc4)c3)cc21 + CCNC(=O)c1noc(-c2cc(C(C)C)c(O)cc2O)c1-c1ccc(CN2CCOCC2)cc1 [Luminespib] (partner 0.01 µM)
Procedure, shortened: as §1

[4] = compound: CCn1c(-c2nonc2N)nc2cnc(Oc3cccc(NC(=O)c4ccc(OCCN5CCOCC5)cc4)c3)cc21 + CC(=O)Nc1cccc(-n2c(=O)n(C3CC3)c(=O)c3c(Nc4ccc(I)cc4F)n(C)c(=O)c(C)c32)c1 [Trametinib] (partner 0.02 µM)
Procedure, shortened: as §1

Row | Cell Line | relative viability ([1]; first compound 0.04 µM) | relative viability ([1]; first compound 0.1265 µM) | relative viability ([1]; first compound 0.4 µM) | relative viability ([1]; first compound 1.265 µM) | relative viability ([1]; first compound 4 µM) | relative viability ([2]; first compound 0.04 µM) | relative viability ([2]; first compound 0.1265 µM) | relative viability ([2]; first compound 0.4 µM) | relative viability ([2]; first compound 1.265 µM) | relative viability ([2]; first compound 4 µM) | relative viability ([3]; first compound 0.04 µM) | relative viability ([3]; first compound 0.1265 µM) | relative viability ([3]; first compound 0.4 µM) | relative viability ([3]; first compound 1.265 µM) | relative viability ([3]; first compound 4 µM) | relative viability ([4]; first compound 0.04 µM) | relative viability ([4]; first compound 0.1265 µM) | relative viability ([4]; first compound 0.4 µM) | relative viability ([4]; first compound 1.265 µM) | relative viability ([4]; first compound 4 µM)
1 | HOP-62 | 1.06 | 1.07 | 1.04 | 0.898 | 0.927 | 0.47 | 0.664 | 0.655 | 0.653 | 0.616 | 1.11 | 1.01 | 0.936 | 0.764 | 0.735 | 0.381 | 0.361 | 0.371 | 0.301 | 0.314
2 | NCI-H322M | 1.26 | 1.1 | 1.13 | 1.29 | 1.2 | 0.874 | 0.761 | 0.772 | 0.632 | 0.799 | 1.25 | 1.16 | 0.931 | 0.434 | 0.587 | 0.631 | 0.604 | 0.522 | 0.487 | 0.57
3 | NCI-H1395 | 1.16 | 1.14 | 1.11 | 0.949 | 1.12 | 0.41 | 0.436 | 0.444 | 0.415 | 0.458 | 0.674 | 0.849 | 0.538 | 0.384 | 0.449 | 1.18 | 0.986 | 0.849 | 0.622 | 0.717
4 | EKVX | 0.96 | 0.96 | 0.886 | 0.724 | 0.977 | 0.25 | 0.213 | 0.235 |  | 0.22 | 1.03 | 0.807 | 0.898 | 0.765 | 0.645 | 0.411 | 0.389 | 0.404 | 0.371 | 0.415
5 | NCI-H520 | 1.16 | 1.01 | 0.969 | 0.96 | 1.03 | 0.553 | 0.648 | 0.38 |  | 0.46 | 0.232 | 0.215 | 0.217 | 0.197 | 0.183 | 0.734 | 0.738 | 0.469 | 0.406 | 0.311
6 | LCLC-97TM1 | 0.411 | 0.384 | 0.396 | 0.489 | 0.396 | 0.477 | 0.406 | 0.412 | 0.478 | 0.498 | 0.923 | 0.728 | 0.664 | 0.882 | 0.856 | 0.257 | 0.192 |  | 0.197 | 0.19
7 | COR-L23 | 1.02 | 0.853 | 1.02 | 0.959 | 0.968 | 0.387 | 0.411 | 0.473 | 0.409 | 0.521 | 0.62 | 0.463 | 0.447 | 0.15 | 0.106 | 0.647 | 0.517 | 0.248 | 0.192 | 0.16

Reference: the supplement of paper PMC10307832
